Patent publication US20240174611A1 (Rappta Therapeutics Oy, priority 2021, published 2024)

The compounds below were run on LNCaP cells (assay: LNCaP cell viability assay (MTS)). Settings: Homo sapiens, LNCaP, 48 h, LNCaP cell line, 48 hours treatment.
Format: cell-based
Description: LNCaP cell line was used for the cell viability assay. LNCaP cells were plated in 96-well plates at a density of 5000 cells per well. After 24 hours of plating, the cells were treated with increasing doses of compound 1-100 ranging from 1 μM to 80 μM. Relative cell numbers were analyzed after 48 hours using 3-(4,5-dimethylthiazol-2-yl)-5-(3-carboxymethoxyphenyl)-2-(4-sulfophenyl)-2H-tetrazolium (MTS) assay (Promega) according to the manufacturer's instructions.
The cell viability data was analyzed with GraphPad Prism software. The values were log transformed and analyzed with non-linear regression (curve-fit) using log(inhibitor) vs. response—variable slope (four parameters) and constraining the bottom to equal zero. Unless otherwise indicated, the GI50 values provided in Table 35 correspond to the LNCaP cell viability assays.

GI50 | SMILES
≥ 80 µM | O=S(=O)(NC1(c2ccccc2)CNC1)c1ccc(OC(F)(F)F)cc1 [Compound 46, N-(3-phenylazetidin-3-yl)-4-(trifluoromethoxy)benzenesulfonamide]
31.8 µM | O=S(=O)(NC1(c2ccc(Cl)cc2)CNC1)c1ccc(OC(F)(F)F)cc1 [Compound 47, N-(3-(4-chlorophenyl)azetidin-3-yl)-4-(trifluoromethoxy)benzenesulfonamide]
18.2 µM | O=S(=O)(NC1(c2ccc(Cl)c(Cl)c2)CNC1)c1ccc(OC(F)(F)F)cc1 [Compound 48, N-(3-(3,4-dichlorophenyl)azetidin-3-yl)-4-(trifluoromethoxy)benzenesulfonamide]
6.75 µM | O=S(=O)(NC1(c2ccc(Cl)c(Cl)c2)CCNCC1)c1ccc(OC(F)(F)F)cc1 [Compound 49, N-(4-(3,4-dichlorophenyl)piperidin-4-yl)-4-(trifluoromethoxy)benzenesulfonamide]
23.3 µM | O=S(=O)(NC1(c2ccccc2)CCNCC1)c1ccc(OC(F)(F)F)cc1 [Compound 50, N-(4-phenylpiperidin-4-yl)-4-(trifluoromethoxy)benzenesulfonamide]
23.4 µM | O=S(=O)(NC1(c2ccc(Cl)c(F)c2)CCNC1)c1ccc(OC(F)(F)F)cc1 (stereo not drawn) [Compound 52, N-(3-(4-chloro-3-fluorophenyl)pyrrolidin-3-yl)-4-(trifluoromethoxy)benzenesulfonamide]
16.3 µM | CC(C)(C)OC(=O)N1CCC(NS(=O)(=O)c2ccc(OC(F)(F)F)cc2)(c2ccc(Cl)cc2)CC1 [Compound 53, tert-butyl 4-(4-chlorophenyl)-4-((4-(trifluoromethoxy)phenyl)sulfonamido)piperidine-1-carboxylate]
26.8 µM | O=S(=O)(NC1(c2ccc(Cl)cc2)CCN(Cc2ccccc2)C1)c1ccc(Oc2ccc(C(F)(F)F)cc2)cc1 (stereo not drawn) [Compound 54, N-(1-benzyl-3-(4-chlorophenyl)pyrrolidin-3-yl)-4-(4-(trifluoromethyl)phenoxy)benzenesulfonamide]
38 µM | O=S(=O)(NC1(c2ccc(Cl)c(Cl)c2)CCN(Cc2ccccc2)C1)c1ccc(Oc2ccc(C(F)(F)F)cc2)cc1 (stereo not drawn) [Compound 55, N-(1-benzyl-3-(3,4-dichlorophenyl)pyrrolidin-3-yl)-4-(4-(trifluoromethyl)phenoxy)benzenesulfonamide]
11 µM | O=S(=O)(NC1(c2ccc(Cl)c(F)c2)CCNCC1)c1ccc(OC(F)(F)F)cc1 [Compound 56, N-(4-(4-chloro-3-fluorophenyl)piperidin-4-yl)-4-(trifluoromethoxy)benzenesulfonamide]
10.6 µM | O=S(=O)(NC1(c2ccc(Cl)cc2)CCNC1)c1ccc(Oc2ccc(C(F)(F)F)cc2)cc1 (stereo not drawn) [Compound 57, N-(3-(4-chlorophenyl)pyrrolidin-3-yl)-4-(4-(trifluoromethyl)phenoxy)benzenesulfonamide]
23.2 µM | O=S(=O)(NC1(c2ccc(Cl)c(F)c2)CNC1)c1ccc(OC(F)(F)F)cc1 [Compound 58, N-(3-(4-chloro-3-fluorophenyl)azetidin-3-yl)-4-(trifluoromethoxy)benzenesulfonamide]
18.1 µM | O=S(=O)(NC1(c2ccc(F)cc2)CCNCC1)c1ccc(OC(F)(F)F)cc1 [Compound 59, N-(4-(4-fluorophenyl)piperidin-4-yl)-4-(trifluoromethoxy)benzenesulfonamide]
49.6 µM | O=S(=O)(NC1(c2ccccc2)CCNCC1)c1ccc(OC(F)(F)F)nc1 [Compound 60, N-(4-phenylpiperidin-4-yl)-6-(trifluoromethoxy)pyridine-3-sulfonamide]
44.1 µM | CN1CCC(NS(=O)(=O)c2ccc(OC(F)(F)F)cc2)(c2ccccc2)CC1 [Compound 61, N-(1-methyl-4-phenylpiperidin-4-yl)-4-(trifluoromethoxy)benzenesulfonamide]
11.3 µM | CC(C)Oc1ccc(S(=O)(=O)NC2(c3ccc(Cl)cc3)CCNCC2)cc1 [Compound 62, N-(4-(4-chlorophenyl)piperidin-4-yl)-4-isopropoxybenzenesulfonamide]
38.4 µM | N=S(=O)(NC1(c2ccc(Cl)cc2)CCNC1)c1ccc(OC(F)(F)F)cc1 (stereo not drawn) [Compound 63, N-(3-(4-chlorophenyl)pyrrolidin-3-yl)-4-(trifluoromethoxy)benzenesulfonimidamide]
44.9 µM | O=S(=O)(NC1(c2ccc(Cl)cc2)CCNC1)c1ccc(OC(F)(F)F)nc1 (stereo not drawn) [Compound 64, N-(3-(4-chlorophenyl)pyrrolidin-3-yl)-6-(trifluoromethoxy)pyridine-3-sulfonamide]
68.6 µM | O=S(=O)(NC1(C23CC(C2)C3)CCNCC1)c1ccc(OC(F)(F)F)cc1 [Compound 66, N-(4-(bicyclo[1.1.1]pentan-1-yl)piperidin-4-yl)-4-(trifluoromethoxy)benzenesulfonamide]

GI50 | SMILES
18.2 µM | CC(C)Oc1ccc(S(=O)(=O)NC2(c3ccc(Cl)cc3)CCNCC2)cn1 [Compound 67, N-(4-(4-chlorophenyl)piperidin-4-yl)-6-isopropoxypyridine-3-sulfonamide]
27.2 µM | CN=S(=O)(NC1(c2ccc(Cl)cc2)CCNC1)c1ccc(OC(F)(F)F)cc1 (stereo not drawn) [Compound 68, N-(3-(4-chlorophenyl)pyrrolidin-3-yl)-N′-methyl-4-(trifluoromethoxy)benzenesulfonimidamide]
19.5 µM | CN1CCC(NS(=O)(=O)c2ccc(OC(F)(F)F)cc2)(c2ccc(Cl)cc2)C1 (stereo not drawn) [Compound 69, N-(3-(4-chlorophenyl)-1-methylpyrrolidin-3-yl)-4-(trifluoromethoxy)benzenesulfonamide]
21.7 µM | CC(C)(C)OC(=O)N1CCC(NS(=O)(=O)c2ccc(OC(F)(F)F)cc2)(c2ccc(Cl)cc2)C1 (stereo not drawn) [Compound 70]
59.1 µM | O=S(=O)(NC1(c2ccc(Cl)cc2)CCN(C2COC2)C1)c1ccc(OC(F)(F)F)cc1 (stereo not drawn) [Compound 71, N-(3-(4-chlorophenyl)-1-(oxetan-3-yl)pyrrolidin-3-yl)-4-(trifluoromethoxy)benzenesulfonamide]
50.4 µM | CS(=O)(=O)N1CCC(NS(=O)(=O)c2ccc(OC(F)(F)F)cc2)(c2ccc(Cl)cc2)C1 (stereo not drawn) [Compound 72, N-(3-(4-chlorophenyl)-1-(methylsulfonyl)pyrrolidin-3-yl)-4-(trifluoromethoxy)benzenesulfonamide]
56.4 µM | O=S(=O)(NC1(c2ncc(Cl)s2)CCNCC1)c1ccc(OC(F)(F)F)cc1 [Compound 73, N-(4-(5-chlorothiazol-2-yl)piperidin-4-yl)-4-(trifluoromethoxy)benzenesulfonamide]
47.9 µM | O=S(=O)(NC1(c2ccc(F)cc2)CCNC1)c1ccc(OC(F)(F)F)cc1 (stereo not drawn) [Compound 74, N-(3-(4-fluorophenyl)pyrrolidin-3-yl)-4-(trifluoromethoxy)benzenesulfonamide]
30.7 µM | CC(C)Oc1ccc(S(=O)(=O)NC2(c3ccc(F)cc3)CCNCC2)cc1 [Compound 75, N-(4-(4-fluorophenyl)piperidin-4-yl)-4-isopropoxybenzenesulfonamide]
41.7 µM | CC(C)Oc1ccc(S(=O)(=O)NC2(c3ccc(F)cc3)CCNCC2)cn1 [Compound 77, N-(4-(4-fluorophenyl)piperidin-4-yl)-6-isopropoxypyridine-3-sulfonamide]
70.5 µM | CC(C)Oc1ccc(S(=O)(=O)NC2(c3ccc(F)cc3)CCNC2)cc1 (stereo not drawn) [Compound 78, N-(3-(4-fluorophenyl)pyrrolidin-3-yl)-4-isopropoxybenzenesulfonamide]
50 µM | CC(C)Oc1ccc(S(=O)(=O)NC2(c3ccc(Cl)cc3)CCNC2)cn1 (stereo not drawn) [Compound 80, N-(3-(4-chlorophenyl)pyrrolidin-3-yl)-6-isopropoxypyridine-3-sulfonamide]
45.8 µM | CC(C)CC(=O)N1CCC(NS(=O)(=O)c2ccc(OC(F)(F)F)cc2)(c2ccc(Cl)cc2)C1 (stereo not drawn) [Compound 81, N-(3-(4-chlorophenyl)-1-(3-methylbutanoyl)pyrrolidin-3-yl)-4-(trifluoromethoxy)benzenesulfonamide]
14.4 µM | O=S(=O)(NC1(c2ccc(F)c(F)c2)CCNCC1)c1ccc(OC(F)(F)F)cc1 [Compound 82, N-(4-(3,4-difluorophenyl)piperidin-4-yl)-4-(trifluoromethoxy)benzenesulfonamide]
32 µM | O=S(=O)(NC1(c2ccc(F)cc2F)CCNCC1)c1ccc(OC(F)(F)F)cc1 [Compound 83, N-(4-(2,4-difluorophenyl)piperidin-4-yl)-4-(trifluoromethoxy)benzenesulfonamide]
33.5 µM | CN(C1(c2ccc(Cl)cc2)CCNC1)S(=O)(=O)c1ccc(OC(F)(F)F)cc1 (stereo not drawn) [Compound 85, N-(3-(4-chlorophenyl)pyrrolidin-3-yl)-N-methyl-4-(trifluoromethoxy)benzenesulfonamide]
46.6 µM | O=S(=O)(NC1(c2ccc(Cl)cn2)CCNCC1)c1ccc(OC(F)(F)F)cc1 [Compound 87, N-(4-(5-chloropyridin-2-yl)piperidin-4-yl)-4-(trifluoromethoxy)benzenesulfonamide]
36.5 µM | O=S(=O)(NC1(c2cc(F)ccc2F)CCNCC1)c1ccc(OC(F)(F)F)cc1 [Compound 88, N-(4-(2,5-difluorophenyl)piperidin-4-yl)-4-(trifluoromethoxy)benzenesulfonamide]
46.6 µM | O=S(=O)(NC1(c2ccc(Cl)c(Cl)c2)CC1)c1ccc(OC(F)(F)F)cc1 [Compound 89, N-(1-(3,4-dichlorophenyl)cyclopropyl)-4-(trifluoromethoxy)benzenesulfonamide]

SMILES | GI50
O=S(=O)(NC1(c2ccccc2)CC2CCC(C1)N2)c1ccc(OC(F)(F)F)cc1 (stereo not drawn) [Compound 86, N-(3-phenyl-8-azabicyclo[3.2.1]octan-3-yl)-4-(trifluoromethoxy)benzenesulfonamide] | 23.7 µM
